The results in this text go back to paper PMC5451387, “Structural insights into the elevator-like mechanism of the sodium/citrate symporter CitS” (Scientific Reports, 2017).

For this experiment, the target named is T1, KpCitS (Klebsiella pneumoniae, UniProt P31602).
T1 construct: gene citS; homodimer; TM7-TM8 loop not modelled
T1 sequence (P31602 1-446): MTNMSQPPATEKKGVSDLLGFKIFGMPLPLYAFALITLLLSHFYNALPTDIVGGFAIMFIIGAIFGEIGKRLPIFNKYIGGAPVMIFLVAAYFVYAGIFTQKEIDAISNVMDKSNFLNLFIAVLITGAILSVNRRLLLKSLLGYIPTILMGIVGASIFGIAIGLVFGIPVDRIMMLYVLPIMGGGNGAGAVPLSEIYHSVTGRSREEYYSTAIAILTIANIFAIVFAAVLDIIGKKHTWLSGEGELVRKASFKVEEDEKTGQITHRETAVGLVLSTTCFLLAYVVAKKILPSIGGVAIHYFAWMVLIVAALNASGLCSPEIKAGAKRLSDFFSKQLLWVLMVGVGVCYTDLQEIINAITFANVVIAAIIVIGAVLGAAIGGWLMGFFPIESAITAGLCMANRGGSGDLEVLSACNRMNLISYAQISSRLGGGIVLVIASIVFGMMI
Put plainly: X-ray crystal structures, […]-4.[…] A. Format: binding. The conditions noted are these: sodium-containing buffer; bound at the transport-domain site in outward-facing and asymmetric forms; one citrate per protomer.

With `O=C(O)CC(O)(CC(=O)O)C(=O)O` [citrate], the “X-ray crystal structures, 3.5-4.0 A” value was “Each KpCitS protomer binds one molecule of citrate in the outward-facing and asymmetric conformations”.
